In patent US20260008776A1 (HANGZHOU POLYMED BIOPHARMACEUTICALS, INC., priority 2023, published 2026):
Where two headings read alike, the source gives them in different places.

How the values were obtained:
[1] = Solubility test of salts in pH buffers, water and physiological solutions; format: physicochemical
Description: The solubility of dominant salts in different pH buffers, water, and physiological solutions was determined. The specific steps for solubility determination are as follows: […] The vials were sealed, transferred to a magnetic stirrer, and maintained at 25° C. with a stirring rate of 500 rpm for 24 hours. The dissolution status in sample vials was recorded during the test. After 24 hours, approximately 1 mL of the suspension was filtered, and the filtrate was collected for solubility test via HPLC analysis. The pH value of the filtrate sample was measured using a pH meter.

[2] = format: physicochemical
Description: The glass dishes or glass vials were then placed in different environments of the constant temperature and humidity chamber, with conditions including: illumination: 4500±500 Lux (open); high temperature: 60° C.

DVS test of salt forms = format: physicochemical; settings: for Hygroscopicity (DVS), in words: 0% to 90% humidity, two cycles
Source text: 1. The instrument sample pan was first tared and balanced.
3. The program was run: starting from 0% humidity as the initial point, slowly increasing to 90%, then returning to 0% to complete the cycle 1; rising again to 90% and decreasing back to 0% to conclude, completing the cycle 2 (as shown in FIGS. 35-36).

[3] = Pharmacokinetic test in rats, oral gavage; format: in vivo, Sprague-Dawley rats
Description: (§1) Subsequently, 976 μL of Tween 80 was added and vortexed for 30 seconds, followed by the addition of 488 μL of Kolliphor HS15 (Kolliphor HS15 was used after heating and melting at 50° C.) and vortexed for 30 seconds. Finally, 7808 L of saline was added and vortexed for 30 seconds, followed by ultrasonication for 10 seconds to remove bubbles. The resulting administration preparation was a suspension.
as §1, with “1034” for “976”, “517” for “488”, “8270 μL” for “7808 L”
Species and Strain: Sprague-Dawley rats (SD rats) (Zhejiang Vital River Laboratory Animal Technology Co., Ltd.) • Animal Grade: SPF level
Planned initial body weight for administration: Male 200-250 g. Actual animal weights will be listed in the raw records. • Number and Gender of Animals: 3 (3 per group), male
Based on measured body weights, animals with similar weights were divided into groups of 3 animals each. Blank group animals were used for the collection of blank biological matrices.
• Administration route: Oral gavage • Administration volume: 10 mL/kg • Administration frequency: Single dose • Administration method: The test sample was administered orally via gavage using an appropriate syringe and gavage tube. When using a 2 mL or 5 mL syringe, the administration volume was recorded to one decimal place. When the minimum graduation value of the syringe was 0.2 mL and the administration volume was between two graduation marks, the higher volume was selected for administration.
Sample collection: Approximately 0.30 mL of whole blood was collected from the orbital vein of Group 1 animals at each time point.
The experimental animals were fasted for 12 hours before administration, with free access to water. Blood samples were collected from Group 1 animals (oral gavage group) at 5 min, 15 min, 30 min, 1 h, 2 h, 4 h, 6 h, 8 h, and 24 h after administration.
Sample processing: The collected venous blood was immediately transferred to EDTA-Na2-coated EP tubes (stored in a refrigerator or in an ice box with crushed ice at 2-8° C. prior to use), inverted at least 5 times for thorough mixing, and temporarily stored in an ice box with crushed ice. The collected whole blood was centrifuged at 2000 g for 10 min under 2-8° C. conditions within 2 h to separate plasma, which was then placed in newly labeled centrifuge tubes and stored at −20° C.
The pharmacokinetics group of the Department of Pharmacology and Toxicology conducted the analysis and measurement of all samples, followed by data summarization. Plasma concentration data were analyzed using the pharmacokinetic data analysis software WinNonlin. Non-compartmental analysis (NCA) was employed to calculate pharmacokinetic parameters such as t1/2, Cmax, Tmax, Vd, CL, AUC0-24, and F. The detailed results are shown in the following table: […]

[4] = High Relative Humidity (RH = 90 ± 5%, Open, 25° C.), 5 Days
[5] = High Relative Humidity (RH = 90 ± 5%, Open, 25° C.), 11 Days
[6] = High Temperature (60° C., Sealed), 5 Days
[7] = High Temperature (60° C., Sealed), 11 Days
[8] = Strong Illumination (Open), 5 Days
[9] = Strong Illumination (Open), 11 Days
[10] = rats, PO, 40 mpk, single dose, plasma

## CC(C)(O)CCn1cc2cc(NC(=O)c3coc(-c4ccnc(C(F)(F)F)c4)n3)c(C(C)(C)O)cc2n1.Cl [crystal form A of hydrochloride salt]
[1]; Buffer pH = 1.0, 24 hours
  Solubility at 25° C.: 172.73 µg/mL
[1]; Buffer pH = 6.8, 24 hours
  Solubility at 25° C.: <LOD
[1]; FaSSIF (pH = 6.5), 24 hours
  Solubility at 25° C.: 2.09 µg/mL
[1]; FeSSIF (pH = 5.0), 24 hours
  Solubility at 25° C.: 7.86 µg/mL
[1]; SGF (pH = 1.2), 24 hours
  Solubility at 25° C.: 2.20 µg/mL
[1]; Water, 24 hours
  Solubility at 25° C.: <LOD
[2]
  Solid-state stability evaluation: good physical and chemical stability
[2]; [4]
  Color Change: No Change
  Purity: 99.65%
  Salt Type: No Change
[2]; [5]
  Color Change: No Change
  Purity: 99.79%
  Salt Type: No Change
[2]; [6]
  Color Change: No Change
  Purity: 99.64%
  Salt Type: No Change
[2]; [7]
  Color Change: No Change
  Purity: 99.48%
  Salt Type: No Change
[2]; Initial State
  Purity: 98.53%
[2]; Initial State (colour)
  Color Change: White
[2]; [8]
  Color Change: No Change
  Purity: 99.68%
  Salt Type: No Change
[2]; [9]
  Color Change: No Change
  Purity: 99.56%
  Salt Type: No Change
DVS test of salt forms
  Change of the sample before and after the DVS test: no changes are observed
  Hygroscopicity (DVS), in words: low hygroscopicity
  Water Sorption at 90% Relative Humidity: 0.42% Water Sorption at 90% Relative Humidity
DVS test of salt forms; cycle 1, 0% humidity
  Desorption: −0.06%
  Sorption: 0.00%
DVS test of salt forms; cycle 1, 10% humidity
  Desorption: −0.02%
  Sorption: −0.02%
DVS test of salt forms; cycle 1, 20% humidity
  Desorption: 0.01%
  Sorption: 0.00%
DVS test of salt forms; cycle 1, 30% humidity
  Desorption: 0.04%
  Sorption: 0.03%
DVS test of salt forms; cycle 1, 40% humidity
  Desorption: 0.07%
  Sorption: 0.06%
DVS test of salt forms; cycle 1, 50% humidity
  Desorption: 0.11%
  Sorption: 0.09%
DVS test of salt forms; cycle 1, 60% humidity
  Desorption: 0.16%
  Sorption: 0.13%
DVS test of salt forms; cycle 1, 70% humidity
  Desorption: 0.21%
  Sorption: 0.17%
DVS test of salt forms; cycle 1, 80% humidity
  Desorption: 0.30%
  Sorption: 0.28%
DVS test of salt forms; cycle 1, 90% humidity
  Desorption: 0.42%
  Sorption: 0.42%
DVS test of salt forms; cycle 2, 0% humidity
  Desorption: −0.05%
  Sorption: −0.06%
DVS test of salt forms; cycle 2, 10% humidity
  Desorption: −0.02%
  Sorption: −0.03%
DVS test of salt forms; cycle 2, 20% humidity
  Desorption: 0.01%
  Sorption: 0.01%
DVS test of salt forms; cycle 2, 30% humidity
  Desorption: 0.05%
  Sorption: 0.03%
DVS test of salt forms; cycle 2, 40% humidity
  Desorption: 0.08%
  Sorption: 0.07%
DVS test of salt forms; cycle 2, 50% humidity
  Desorption: 0.12%
  Sorption: 0.10%
DVS test of salt forms; cycle 2, 60% humidity
  Desorption: 0.17%
  Sorption: 0.14%
DVS test of salt forms; cycle 2, 70% humidity
  Desorption: 0.22%
  Sorption: 0.19%
DVS test of salt forms; cycle 2, 80% humidity
  Desorption: 0.32%
  Sorption: 0.30%
DVS test of salt forms; cycle 2, 90% humidity
  Desorption: 0.45%
  Sorption: 0.45%

## CC(C)(O)CCn1cc2cc(NC(=O)c3coc(-c4ccnc(C(F)(F)F)c4)n3)c(C(C)(C)O)cc2n1.O=P(O)(O)O [crystal form A of phosphate salt]
[1]; Buffer pH = 6.8, 24 hours
  Solubility at 25° C.: <LOD
[1]; FaSSIF (pH = 6.5), 24 hours
  Solubility at 25° C.: <LOD
[1]; FeSSIF (pH = 5.0), 24 hours
  Solubility at 25° C.: <LOD
[1]; SGF (pH = 1.2), 24 hours
  Solubility at 25° C.: <LOD
[1]; Water, 24 hours
  Solubility at 25° C.: <LOD
[2]; [4]
  Color Change: No Change
  Purity: 99.66%
  Salt Type: No Change
[2]; [5]
  Color Change: No Change
  Purity: 99.33%
  Salt Type: No Change
[2]; [6]
  Color Change: Turn Yellow
  Purity: 99.49%
  Salt Type: No Change
[2]; [7]
  Color Change: Turn Yellow
  Purity: 99.49%
  Salt Type: No Change
[2]; Initial State
  Purity: 99.18%
[2]; Initial State (colour)
  Color Change: White
[2]; [8]
  Color Change: No Change
  Purity: 99.67%
  Salt Type: No Change
[2]; [9]
  Color Change: No Change
  Purity: 99.01%
  Salt Type: No Change
DVS test of salt forms
  Change of the sample before and after the DVS test: no changes are observed
  Hygroscopicity (DVS), in words: low hygroscopicity
  Water Sorption at 90% Relative Humidity: 0.80% Water Sorption at 90% Relative Humidity
DVS test of salt forms; cycle 1, 0% humidity
  Desorption: −0.04%
  Sorption: 0.00%
DVS test of salt forms; cycle 1, 10% humidity
  Desorption: −0.01%
  Sorption: 0.02%
DVS test of salt forms; cycle 1, 20% humidity
  Desorption: 0.01%
  Sorption: 0.04%
DVS test of salt forms; cycle 1, 30% humidity
  Desorption: 0.04%
  Sorption: 0.06%
DVS test of salt forms; cycle 1, 40% humidity
  Desorption: 0.09%
  Sorption: 0.10%
DVS test of salt forms; cycle 1, 50% humidity
  Desorption: 0.15%
  Sorption: 0.14%
DVS test of salt forms; cycle 1, 60% humidity
  Desorption: 0.21%
  Sorption: 0.20%
DVS test of salt forms; cycle 1, 70% humidity
  Desorption: 0.31%
  Sorption: 0.29%
DVS test of salt forms; cycle 1, 80% humidity
  Desorption: 0.46%
  Sorption: 0.44%
DVS test of salt forms; cycle 1, 90% humidity
  Desorption: 0.80%
  Sorption: 0.80%
DVS test of salt forms; cycle 2, 0% humidity
  Desorption: −0.05%
  Sorption: −0.04%
DVS test of salt forms; cycle 2, 10% humidity
  Desorption: −0.03%
  Sorption: −0.02%
DVS test of salt forms; cycle 2, 20% humidity
  Desorption: 0.00%
  Sorption: 0.01%
DVS test of salt forms; cycle 2, 30% humidity
  Desorption: 0.03%
  Sorption: 0.04%
DVS test of salt forms; cycle 2, 40% humidity
  Desorption: 0.07%
  Sorption: 0.07%
DVS test of salt forms; cycle 2, 50% humidity
  Desorption: 0.13%
  Sorption: 0.12%
DVS test of salt forms; cycle 2, 60% humidity
  Desorption: 0.20%
  Sorption: 0.18%
DVS test of salt forms; cycle 2, 70% humidity
  Desorption: 0.29%
  Sorption: 0.27%
DVS test of salt forms; cycle 2, 80% humidity
  Desorption: 0.45%
  Sorption: 0.43%
DVS test of salt forms; cycle 2, 90% humidity
  Desorption: 0.79%
  Sorption: 0.79%

## CC(C)(O)CCn1cc2cc(NC(=O)c3coc(-c4ccnc(C(F)(F)F)c4)n3)c(C(C)(C)O)cc2n1.Cl [hydrochloride salt]
[3]; SD rats, single oral gavage, 4 mg/mL suspension, 10 mL/kg
  Plasma concentration and exposure compared with the free base: significantly increase
[3]; [10]
  AUC0-24: 27508.69 ng·h/mL
  Cmax: 5117.67 ng/mL

## CC(C)(O)CCn1cc2cc(NC(=O)c3coc(-c4ccnc(C(F)(F)F)c4)n3)c(C(C)(C)O)cc2n1.O=S(=O)(O)O [crystal form A of sulfate salt]
[1]; Buffer pH = 1.0, 24 hours
  Solubility at 25° C.: 179.03 µg/mL
[1]; Buffer pH = 6.8, 24 hours
  Solubility at 25° C.: <LOD
[1]; FaSSIF (pH = 6.5), 24 hours
  Solubility at 25° C.: <LOD
[1]; FeSSIF (pH = 5.0), 24 hours
  Solubility at 25° C.: 19.45 µg/mL
[1]; SGF (pH = 1.2), 24 hours
  Solubility at 25° C.: 2.88 µg/mL
[1]; Water, 24 hours
  Solubility at 25° C.: 1.34 µg/mL
[2]; [4]
  Color Change: Turn Yellow
  Purity: 99.08%
  Salt Type: No Change
[2]; [5]
  Purity: 99.14%
  Salt Type: No Change
[2]; [6]
  Color Change: Turn Yellow
  Purity: 99.74%
  Salt Type: No Change
[2]; [7]
  Color Change: Turn Yellow
  Purity: 98.39%
  Salt Type: No Change
[2]; Initial State
  Purity: 99.12%
[2]; Initial State (colour)
  Color Change: White
[2]; [8]
  Color Change: No Change
  Purity: 99.35%
  Salt Type: No Change
[2]; [9]
  Color Change: No Change
  Purity: 99.26%
  Salt Type: No Change
